# Measurements: patent US11162129B2, “Photoprotective mixtures as imaging reagents in sequencing-by-synthesis” (IsoPlexis Corporation, priority 2016, dated 2021)
# Text: Components in various photoprotective imaging mixtures as described herein have been tested for solubility and stability against precipitation and discoloration in imaging solution formulation using […] as the base buffer.
row,optimal concentration window in imaging solution formulation [mM],SMILES
1,10 to 20,"CCOC(=O)c1ccc(O)c(O)c1 [3,4-Dihydroxybenzoic Acid Ethyl Ester, 3,4-dihydroxybenzoic acid ethyl ester]"
2,5 to 50,"C[N+](C)(C)CC(O)CC(=O)[O-] (stereo not drawn) [Carnitine, carnitine]"
3,5 to 15,"Cc1c(C)c2c(c(C)c1O)CCC(C)(C(=O)O)O2 (stereo not drawn) [Trolox, 6-hydroxy-2,5,7,8-tetramethylchromane-2-carboxylic acid]"
